# Experimental data reported in patent US8163795B2, “Chroman derivatives, medicaments and use in therapy” (Marshall Edwards, Inc., priority 2004, dated 2012).
# Read-outs that look alike come from different tables or passages of the source.
# What was measured:
# Type in all cases: cell-based
# MM200 melanoma cell line [1] = test: Proliferation assay (MTT); settings: read-out: IC50
# [2] = tested on: MEL-RM melanoma cells (TRAIL sensitive); test: Apoptosis incidence in melanoma cells
# [3] = tested on: ME4405 melanoma cells (TRAIL sensitive); test: Apoptosis incidence in melanoma cells
# [4] = tested on: normal fibroblasts (MRC-5); test: Apoptosis in normal fibroblasts; settings: same concentration (8 μM) and exposure times (24 and 48 hr) as melanoma cells
# Description: Studies were conducted on normal fibroblasts (MRC-5) and TRAIL-sensitive melanoma cells (ME4405 and MEL-RM) using 8 μM of either DHE, or HMC over 24 and 48 hr of exposure (FIG. 9).
# MM200 melanoma cell line [5] = test: HMC combination with cisplatin (synergy); settings: for IC50: Table 8, single agent
# Description: (§1) IC50 values were determined for each cell line. Cells were seeded in 96-well plates at an appropriate cell density as determined from growth kinetics analysis and cultured for 5 days in the absence and presence of the test compounds. Cell proliferation was assessed after the addition of 20 μl of 3-4,5 dimethylthiazol-2,5-diphenyl tetrazolium bromide (MTT, 2.5 mg/ml in PBS, Sigma) for 3-4 hrs at 37° C. according to manufacturer's instructions. IC50 values were calculated from semi-log plots of % of control proliferation on the y-axis against log dose on the x-axis.
# (§2) 3-D model analysis of the cytotoxic interaction between drug A and drug B enables the representation of predicted inhibitory effect of two drugs in combination in 3 dimensions to reveal actual regions of synergy or antagonism. The 3D synergy plots are based on a theory of “Theretical Additivity” (TA) as outlined by Kanzawa et al (Int. J. Cancer 71, 311-319 (1997)). Theoretical Additivity was calculated from the cytotoxicities of drug A and drug B as monotherapies using the following formula which assumes the drugs are mutually exclusive inhibitors: […]
# (§3) The TA is calculated for each combination of drug concentrations and subtracted from the observed experimental effect for each combination to give a measurement of synergisitic action.
# HMC synergy with cisplatin was assessed either in combination over 5 days exposure or in sequence (HMC→cisplatin) against the MM200 melanoma cell line. It was difficult to assess for synergisitic toxicity using a change in IC50 as a measure of synergy due to HMC toxicity as monotherapy (Table 8). […] Evidence of synergy using the HMC-cisplatin combination was further assessed using the HMC→cisplatin sequence (24 hr exposure to each compound in sequence) against the melanoma cell line MM200. Using change in IC50 to assess for synergy it was noted that HMC at concentrations of 2 μM markedly chemosensitised the MM200 cells to cisplatin by >1000 fold (Table 8). HMC induced chemosensitisation of MM200 cells to cisplatin was confirmed using 3D analysis of the data (FIG. 11B).
# 4405 melanoma cell line = test: HMC combination with paclitaxel (synergy); settings: for IC50: Table 10, single agent
# Description: as §1, §2, §3
# HMC synergy with paclitaxel was assessed either in combination over 5 days exposure or in sequence (HMC→paclitaxel) against the 4405 melanoma cell line. It was difficult to assess for synergisitic toxicity using a change in IC50 as a measure of synergy due to HMC toxicity as monotherapy (Table 10). […] Evidence of synergy using the HMC-paclitaxel combination was further assessed using the HMC→paclitaxel sequence (24 hr exposure to each compound in sequence) against the melanoma cell line 4405. Using change in IC50 to assess for synergy it was noted that HMC at concentrations of 2 μM markedly chemosensitised the 4405 cells to paclitaxel by >1000 fold (Table 10). HMC-induced chemosensitisation of […] cells to paclitaxel was confirmed using 3D analysis of the data.
# [6] = tested on: Mel-RM melanoma cell line; test: HMC combination with doxorubicin (synergy); settings: for IC50: Table 12, single agent; for Change Factor (Combined): 5-day combination
# Description: IC50 values were determined for each cell line. Cells were seeded in 96-well plates at an appropriate cell density as determined from growth kinetics analysis and cultured for 5 days in the absence and presence of the test compounds. […] IC50 values were calculated from semi-log plots of % of control proliferation on the y-axis against log dose on the x-axis.
# 3-D model analysis of the cytotoxic interaction between drug A and drug B enables the representation of predicted inhibitory effect of two drugs in combination in 3 dimensions to reveal actual regions of synergy or antagonism. […] Theoretical Additivity was calculated from the cytotoxicities of drug A and drug B as monotherapies using the following formula which assumes the drugs are mutually exclusive inhibitors: […]
# HMC synergy with doxorubicin was assessed either in combination over 5 days exposure or in sequence (HMC→doxorubicin) against the Mel-RM melanoma cell line.
# [7] = 120 h, 5 days exposure, read-out: IC50, Combined (monotherapy)
# [8] = 24 hr exposure, read-out: IC50, 24 hr (monotherapy)
structure (smiles),measurement,setting,value
"COc1ccc(C2c3ccc(O)cc3OCC2c2ccc(O)cc2)cc1 (stereo not drawn) [Compound 1, 3-(4-hydroxyphenyl)-4-(4-methoxyphenyl)chroman-7-ol]",IC50,"MM200 melanoma cell line [1]; Table 2.1, Melanoma MM200",700 ± 30 nM
same,IC50,"MM200 melanoma cell line [1]; Table 2.2, Melanoma MM200",1070 ± 500 nM
same,IC50,"MM200 melanoma cell line [1]; Table 15, melanoma MM200, monotherapy",1130 ± 520 nM
same,Percent Apoptosis,"[2]; 24 hr exposure, 1 uM",0%
same,Percent Apoptosis,"[2]; 24 hr exposure, 2 uM",8%
same,Percent Apoptosis,"[2]; 24 hr exposure, 4 uM",25%
same,Percent Apoptosis,"[2]; 24 hr exposure, 8 uM",39%
same,Percent Apoptosis,"[2]; 24 hr exposure, 20 uM",38%
same,Percent Apoptosis,"[2]; 48 hr exposure, 1 uM",1.5%
same,Percent Apoptosis,"[2]; 48 hr exposure, 2 uM",8%
same,Percent Apoptosis,"[2]; 48 hr exposure, 4 uM",22%
same,Percent Apoptosis,"[2]; 48 hr exposure, 8 uM",38%
same,Percent Apoptosis,"[2]; 48 hr exposure, 20 uM",30%
same,Percent Apoptosis,"[3]; 24 hr exposure, 1 uM",0%
same,Percent Apoptosis,"[3]; 24 hr exposure, 2 uM",8%
same,Percent Apoptosis,"[3]; 24 hr exposure, 4 uM",9%
same,Percent Apoptosis,"[3]; 24 hr exposure, 8 uM",11%
same,Percent Apoptosis,"[3]; 24 hr exposure, 20 uM",19%
same,Percent Apoptosis,"[3]; 48 hr exposure, 1 uM",1.5%
same,Percent Apoptosis,"[3]; 48 hr exposure, 2 uM",8%
same,Percent Apoptosis,"[3]; 48 hr exposure, 4 uM",42%
same,Percent Apoptosis,"[3]; 48 hr exposure, 8 uM",20%
same,Percent Apoptosis,"[3]; 48 hr exposure, 20 uM",18%
same,induction of apoptosis in normal fibroblasts,[4],do not induce apoptosis
same,IC50,MM200 melanoma cell line [5]; [7],720 nM
same,Change Factor (HMC first),MM200 melanoma cell line [5]; HMC 1 uM 24 hr then cisplatin 24 hr,−1.31
same,Change Factor (HMC first),MM200 melanoma cell line [5]; HMC 2 uM 24 hr then cisplatin 24 hr,>10000
same,chemosensitisation of MM200 cells to cisplatin (change in IC50),"MM200 melanoma cell line [5]; HMC 2 μM, HMC→cisplatin sequence",> 1000 fold
same,Change Factor (HMC first),MM200 melanoma cell line [5]; HMC 5 uM 24 hr then cisplatin 24 hr,>10000
same,Change Factor (HMC first),MM200 melanoma cell line [5]; HMC 10 uM 24 hr then cisplatin 24 hr,>10000
same,IC50,MM200 melanoma cell line [5]; [8],20600 nM
same,reduction in IC50 in the combination experiment vs paclitaxel monotherapy,4405 melanoma cell line; 5-day combination,30 fold
same,IC50,4405 melanoma cell line; [7],1260 nM
same,chemosensitisation of 4405 cells to paclitaxel (change in IC50),"4405 melanoma cell line; HMC 2 μM, HMC→paclitaxel sequence",> 1000 fold
same,Change Factor (HMC first),"4405 melanoma cell line; Paclitaxel block, HMC 1 uM 24 hr then paclitaxel 24 hr",11.00
same,Change Factor (HMC first),"4405 melanoma cell line; Paclitaxel block, HMC 2 uM 24 hr then paclitaxel 24 hr",106633.75
same,Change Factor (Combined),"4405 melanoma cell line; Paclitaxel block, with HMC 1 uM, 5-day combination",30.36
same,Change Factor (Combined),"4405 melanoma cell line; Paclitaxel block, with HMC 2 uM, 5-day combination",?HMC effect
same,IC50,4405 melanoma cell line; [8],55500 nM
same,Change Factor (HMC first),"4405 melanoma cell line; upper block of Table 10, HMC 2 uM first, sequence",−1.035
same,Change Factor (Combined),"4405 melanoma cell line; upper block of Table 10, HMC 2 uM, 5-day combination",5964.400
same,IC50,[6]; [7],540 nM
same,Change Factor (HMC first),[6]; HMC 1 uM 24 hr then doxorubicin 24 hr,1.62
same,Change Factor (HMC first),[6]; HMC 2 uM 24 hr then doxorubicin 24 hr,12.22
same,chemosensitisation of Mel-RM cells to camptothecin (change in IC50),"[6]; HMC 2 μM, sequence protocol",~12 fold
same,IC50,[6]; [8],50500 nM
same,Change Factor (Combined),[6]; doxorubicin with HMC 1 uM,−2.06
same,Change Factor (Combined),[6]; doxorubicin with HMC 2 uM,?HMC effect
